From patent US4898729A, “Treatment of hypertension, compounds and compositions for antihypertension and diuresis” (priority 1983, dated 1990)
Where two headings read alike, the source gives them in different places.

Legend:
[1] = tested on: plasma proteins; settings: cited from earlier work
[2] = cited from earlier work; for Potency as diuretic and natriuretic agent relative to chlorothiazide: chlorothiazide being one; for Approx. Natriuretic Activity: comparison with chlorothiazide having a value of 1
[3] = cited from earlier work; for Range diuretic dose: Example 1 table
[4] = Clinical antihypertensive action dissociated from diuresis; assay type: in vivo, humans
Description: Such dosage was preferably administered at hourly intervals over a period of from 4 to 8 hours to hypertensive patients.

[5] = in vivo; cited from earlier work
[6] = tested on: carbonic anhydrase; settings: cited from earlier work

## NS(=O)(=O)c1cc2c(cc1Cl)NC(CC1CCCC1)NS2(=O)=O (centres unmarked) [Cyclopenthiazide]
[1]
  Binding to plasma proteins: proportionately high binding to plasma proteins
[2]
  Potency as diuretic and natriuretic agent relative to chlorothiazide: thousand times more potent
  Approx. Natriuretic Activity: 1000
[2]; listed as cyclopenthiazide
  Potency as diuretic and natriuretic agent relative to chlorothiazide: a thousand
[3]
  Range diuretic dose: 1 to 6 mg
  Daily Diuretic Dose (average minimum diuretic dose): 2 mg
[3]; listed as cyclopenthiazide
  Daily Diuretic Dose (average minimum diuretic dose): about 2 mg

## NS(=O)(=O)c1cc2c(cc1Cl)NCNS2(=O)=O [Hydrochlorothiazide]
[2]
  Approx. Natriuretic Activity: 10
[3]
  Range diuretic dose: 25 to 100 mg
  Daily Diuretic Dose (average minimum diuretic dose): 200 mg

## NS(=O)(=O)c1cc2c(cc1Cl)NC(C(Cl)Cl)NS2(=O)=O (centres unmarked) [Trichlormethiazide]
[1]
  Binding to plasma proteins: proportionately high binding to plasma proteins
[2]
  Approx. Natriuretic Activity: 200
[3]
  Range diuretic dose: 4 to 8 mg
  Daily Diuretic Dose (average minimum diuretic dose): 8 mg

## amiloride-hydrochlorothiazide salt
[4]; at the daily dose of b165
  Diuretic response at the antihypertensive daily dose: without diuresis
[4]; dose of active ingredients per day
  Daily dose to achieve an antihypertensive effect: about 50 mg

## NS(=O)(=O)c1cc2c(cc1C(F)(F)F)NC(Cc1ccccc1)NS2(=O)=O (centres unmarked) [Bendroflumethiazide]
[1]
  Binding to plasma proteins: proportionately high binding to plasma proteins
[2]
  Approx. Natriuretic Activity: 100
[3]
  Range diuretic dose: 2 to 5 mg
  Daily Diuretic Dose (average minimum diuretic dose): 20 mg

## NS(=O)(=O)c1cc2c(cc1Cl)NC(C1CC3C=CC1C3)NS2(=O)=O (centres unmarked) [Cyclothiazide]
[1]
  Binding to plasma proteins: proportionately high binding to plasma proteins
[2]
  Approx. Natriuretic Activity: 500
[3]
  Range diuretic dose: 1 to 6 mg
  Daily Diuretic Dose (average minimum diuretic dose): 2 mg
[3]; listed as cyclothiazide
  Daily Diuretic Dose (average minimum diuretic dose): about 2 mg

## CN1C(CSCC(F)(F)F)Nc2cc(Cl)c(S(N)(=O)=O)cc2S1(=O)=O (centres unmarked) [Polythiazide]
[1]
  Binding to plasma proteins: proportionately high binding to plasma proteins

## NS(=O)(=O)c1cc2c(cc1C(F)(F)F)N=CNS2(=O)=O [Flumethiazide]
[2]
  Approx. Natriuretic Activity: 1
[3]
  Range diuretic dose: 50 to 1000 mg
  Daily Diuretic Dose (average minimum diuretic dose): 200 mg

## CN1C(CCl)Nc2cc(Cl)c(S(N)(=O)=O)cc2S1(=O)=O (centres unmarked) [Methyclothiazide]
[1]
  Binding to plasma proteins: proportionately high binding to plasma proteins
[2]
  Approx. Natriuretic Activity: 100
[3]
  Range diuretic dose: 5 to 10 mg
  Daily Diuretic Dose (average minimum diuretic dose): 10 mg

## NS(=O)(=O)c1cc2c(cc1Cl)N=C(CSCc1ccccc1)NS2(=O)=O [Benzthiazide]
[2]
  Approx. Natriuretic Activity: 10
[3]
  Range diuretic dose: 25 to 50 mg
  Daily Diuretic Dose (average minimum diuretic dose): 200 mg
[5]
  Clinical alkalinization of urine: does not cause an appreciable clinical alkalinization of urine
[6]
  Carbonic anhydrase inhibition, in words: relatively potent carbonic anhydrase inhibitor
